PMC8432172, “Properties of Transport Mediated by the Human Organic Cation Transporter 2 Studied in a Polarized Three-Dimensional Epithelial Cell Culture Model” (International Journal of Molecular Sciences, 2021)
Values joined by “and” are separate entries in the source; they are usually repeats but may differ in a detail not shown here. Equal entries are not always repeated. “Also recorded” adds a separate entry of the source.

What was measured:
[1] = molecular target: T1, hOCT2 (Homo sapiens, UniProt O15244); assay: ASP+ uptake (saturation and inhibition) in hOCT2-MDCK cysts; assay type: cell-based; set-up: The full-length hOCT2 tagged at the carboxy-terminus with GFP (hOCT2-GFP); expressed in transfected cells; host or cells: MDCK II cells (ECACC 00062107), retroviral transduction with pQCXIH, grown as cysts in BME2
T1 sequence (O15244 1-555): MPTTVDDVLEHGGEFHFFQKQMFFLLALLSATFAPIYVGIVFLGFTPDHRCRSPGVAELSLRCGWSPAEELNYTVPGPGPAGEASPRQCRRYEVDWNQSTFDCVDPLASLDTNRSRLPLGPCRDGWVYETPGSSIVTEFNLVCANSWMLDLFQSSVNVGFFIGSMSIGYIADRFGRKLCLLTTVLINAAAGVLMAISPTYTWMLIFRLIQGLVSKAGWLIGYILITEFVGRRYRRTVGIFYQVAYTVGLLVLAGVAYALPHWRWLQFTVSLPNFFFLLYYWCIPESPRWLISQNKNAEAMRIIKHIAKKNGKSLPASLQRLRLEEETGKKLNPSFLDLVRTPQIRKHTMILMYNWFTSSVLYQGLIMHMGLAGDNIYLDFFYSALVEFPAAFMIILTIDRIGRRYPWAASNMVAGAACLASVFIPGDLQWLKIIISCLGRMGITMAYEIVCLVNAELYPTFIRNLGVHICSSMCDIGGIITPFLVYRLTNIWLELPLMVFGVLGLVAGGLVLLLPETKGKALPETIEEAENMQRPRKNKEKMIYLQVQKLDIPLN

[2] = molecular target: T1, hOCT2; assay: Acute regulation of ASP+ uptake and ASP+ transport kinetics in hOCT2-MDCK cysts (10 min incubation with kinase/calmodulin inhibitors); assay type: cell-based; set-up: The full-length hOCT2 tagged at the carboxy-terminus with GFP (hOCT2-GFP); expressed in transfected cells; host or cells: MDCK II cells (ECACC 00062107), retroviral transduction with pQCXIH, grown as cysts in BME2; conditions: for Acute regulation of initial ASP+ uptake after 10 min incubation: 4 µM ASP+, calmidazolium 5 µM, aminogenistein 10 µM, TBBz 10 µM
Description: (§1) The organic cation ASP^+ was used as a fluorescent substrate of hOCT2 [54]. […] To evaluate hOCT2 function, cellular fluorescence was measured before and after ASP^+ addition in the hOCT2-HEK cells and hOCT2-MDCK and EV-MDCK cysts. Transport measurements were performed at T = 37 °C. […] The effects of the CKII regulation pathway on the kinetic parameters of ASP^+ uptake in hOCT2- MDCK-3D were investigated, comparing the saturation curves in the presence or absence of the regulator.

[3] = molecular target: T1, hOCT2; assay: ASP+ uptake (saturation and inhibition) in hOCT2-HEK cells; assay type: cell-based; set-up: expressed in transfected cells; host or cells: HEK293, stably transfected; gift of Prof; Koepsell (University of Würzburg)
[4] = tested on: hOCT2; assay: Acute regulation of ASP+ uptake in hOCT2-HEK cells (10 min incubation with kinase/calmodulin inhibitors); assay type: cell-based, human; conditions: 1 µM ASP+, calmidazolium 5 µM, aminogenistein 10 µM, TBBz 10 µM
Description: as §1

[5] = tested on: endogenous canine OCT2; assay: ASP+ uptake in EV-MDCK cysts (empty vector); assay type: cell-based; conditions: EV-MDCK cysts (GFP alone); 1 mM TPA+
Description: Upon the addition of 4 µM ASP^+, an increase in cellular fluorescence was observed over time. This fluorescence increase was much higher in the hOCT2-MDCK than the EV-MDCK cysts. […] The slope of the linear range of the ASP^+ uptake increase measured in the first 2 min after ASP^+ addition (arbitrary fluorescence units/[…]) was used as the measurement of the transporter function.
The organic cation ASP^+ was used as a fluorescent substrate of hOCT2 [54]. […] To evaluate hOCT2 function, cellular fluorescence was measured before and after ASP^+ addition in the hOCT2-HEK cells and hOCT2-MDCK and EV-MDCK cysts. Transport measurements were performed at T = 37 °C.

[6] = hOCT2-MDCK cysts, 4 µM ASP+, 37 °C
[7] = hOCT2-MDCK cysts, 4 µM ASP+, 37 °C, read-out: IC50 for the inhibition of ASP+ uptake
[8] = hOCT2-HEK cells, 1 µM ASP+, 37 °C
[9] = hOCT2-HEK cells, 1 µM ASP+, 37 °C, read-out: IC50 for the inhibition of ASP+ uptake

| IC50 [1, 7] [µM] | IC50 [3, 9] [µM] | SMILES | logIC50 ± SEM for the inhibition of ASP+ uptake [1, 6] | logIC50 ± SEM for the inhibition of ASP+ uptake [3, 8] | Acute regulation of initial ASP+ uptake after 10 min incubation [4] | Acute regulation of initial ASP+ uptake after 10 min incubation [2] | other results |
| --- | --- | --- | --- | --- | --- | --- | --- |
|  |  | CN(C)c1ccc(C=Cc2cc[n+](C)cc2)cc1 [ASP^+, 4-(4-(dimethylamino)styryl)-N-methylpyridinium] |  |  |  |  | Km ([1]; hOCT2-MDCK cysts, 0-20 µM ASP+, uptake in presence of 1 mM TPA+ subtracted, 37 °C, read-out: Km ± SEM of specific ASP+ uptake): 3.6 ± 1.2 µM; Vmax of ASP+ transport, control (-TBBz) ([2]; 10 min preincubation with control solution): 6.1 ± 0.1 a.u./s^2; Km ([2]; 10 min preincubation with control solution, read-out: Km of ASP+ transport, control (-TBBz)): 2.6 ± 0.2 µM; Km ([3]; hOCT2-HEK cells, 0-20 µM ASP+, uptake in presence of 1 mM TPA+ subtracted, 37 °C, read-out: Km ± SEM of specific ASP+ uptake): 3.1 ± 0.2 µM |
| 15.4 | 1.1 | CCS(=O)(=O)N1CC(CC#N)(n2cc(-c3ncnc4[nH]ccc34)cn2)C1 [Baricitinib, baricitinib] | −4.81 ± 0.06 | −6.00 ± 0.06 |  |  | logIC50 ± SEM for the inhibition of ASP+ uptake ([1]; hOCT2-MDCK cysts, 4 µM ASP+, 37 °C, listed as baricitinib): −4.8 ± 0.1; logIC50 ± SEM for the inhibition of ASP+ uptake ([3]; hOCT2-HEK cells, 1 µM ASP+, 37 °C, listed as baricitinib): −6.0 ± 0.1 |
| 884 | 804 | CN(C)C(=N)N=C(N)N [Metformin, metformin] | −3.05 ± 0.09 | −3.10 ± 0.11 |  |  | logIC50 ± SEM for the inhibition of ASP+ uptake ([1]; hOCT2-MDCK cysts, 4 µM ASP+, 37 °C, listed as metformin): −3.1 ± 0.1; logIC50 ± SEM for the inhibition of ASP+ uptake ([3]; hOCT2-HEK cells, 1 µM ASP+, 37 °C, listed as metformin): −3.1 ± 0.1 |
|  |  | Brc1c(Br)c(Br)c2[nH]cnc2c1Br [TBBz, 4,5,6,7-tetrabromobenzimidazole] |  |  | only in the hOCT2-MDCK cysts | rapid decrease in ASP^+ uptake only in the hOCT2-MDCK cysts | Vmax of ASP+ transport under CKII inhibition (+TBBz) ([2]; 10 min preincubation with 10 µM TBBz): 3.9 ± 0.8 a.u./s^2 |
|  |  | CCCCC[N+](CCCCC)(CCCCC)CCCCC [TPA^+, tetrapentylammonium] | −6.1 ± 0.1 and −6.04 ± 0.05 | −5.9 ± 0.2 and −5.85 ± 0.11 |  |  | IC50 [1]: 0.9 µM; Inhibition of uptake of 4 µM ASP+ by 1 mM competitor ([1]; hOCT2-MDCK cysts, 1 mM TPA+ in uptake buffer): almost completely inhibited; also recorded: completely suppressed; IC50 [3]: 1.4 µM; Inhibition of uptake of 4 µM ASP+ by 1 mM competitor [5]: significantly inhibited |
|  |  | Nc1ccc(-c2cc(=O)c3cc(O)ccc3o2)cc1 [aminogenistein] |  |  | rapid decrease in ASP^+ uptake | rapid decrease in ASP^+ uptake |  |
|  |  | Clc1ccc(C(c2ccc(Cl)cc2)n2cc[n+](CC(OCc3ccc(Cl)cc3Cl)c3ccc(Cl)cc3Cl)c2)cc1 (stereo not drawn) [calmidazolium] |  |  | rapid decrease in ASP^+ uptake | rapid decrease in ASP^+ uptake |  |

| SMILES | IC50 [1, 7] [µM] | IC50 [3, 9] [µM] | logIC50 ± SEM for the inhibition of ASP+ uptake [1, 6] | logIC50 ± SEM for the inhibition of ASP+ uptake [3, 8] | Acute regulation of initial ASP+ uptake after 10 min incubation [4] | Acute regulation of initial ASP+ uptake after 10 min incubation [2] | other results |
| --- | --- | --- | --- | --- | --- | --- | --- |
| CC[N+](CC)(CC)CC [TEA^+, tetraethylammonium] | 21.3 | 7.6 | −4.7 ± 0.1 and −4.67 ± 0.11 | −5.1 ± 0.1 and −5.12 ± 0.08 |  |  |  |
